Values quoted from earlier work in patent publication US10188610B2, “Prolonged-release diphenidol composition” (INVEKRA, S.A.P.I. DE C.V., priority 2013, dated 2019).
Counter-ions that a name gives are not always drawn.

Settings: after oral administration

half life: 4 h
SMILES: OC(CCCN1CCCCC1)(c1ccccc1)c1ccccc1 [Diphenidol hydrochloride, α,α-diphenil-1-piperidinebutanol]
